Data reported in patent US8173653B2, “Pyridiazinone derivatives for the treatment of tumours” (Merck Patent Gesellschaft MIT Beschraenkter Haftung, priority 2005, dated 2012).

Experiments:
[1] = target: T1, Met kinase (Homo sapiens, UniProt P08581); experiment: Met kinase inhibition (enzyme assay), flashplate method; format: biochemical
T1 construct: 6His (N); purchased Upstate 14-526; host or cells: insect cells (Sf21; S. frugiperda), baculovirus
Method: Flashplate Method (Met Kinase)
The test plates used are 96-well Flashplate® microtitre plates from Perkin Elmer (Cat. No. SMP200). The components of the kinase reaction described below are pipetted into the assay plate. The Met kinase and the substrate poly Ala-Glu-Lys-Tyr, (PAGLT, 6:2:5:1), are incubated for 3 hrs at room temperature with radioactively labelled ^33P-ATP in the presence and absence of test substances in a total volume of 100 μl. The reaction is terminated using 150 μl of a 60 mM EDTA solution. After incubation for a further 30 min at room temperature, the supernatants are filtered off with suction, and the wells are washed three times with 200 μl of 0.9% NaCl solution each time. The measurement of the bound radioactivity is carried out by means of a scintillation measuring instrument (Topcount NXT, Perkin-Elmer).
The full value used is the inhibitor-free kinase reaction. This should be approximately in the range 6000-9000 cpm. The pharmacological zero value used is staurosporin in a final concentration of 0.1 mM. The inhibitory values (IC50) are determined using the RS1_MTS program.
Kinase reaction conditions per well: • 30 μl of assay buffer • 10 μl of substance to be tested in assay buffer with 10% of DMSO • 10 μl of ATP (final concentration 1 μM cold, 0.35 μCi of ^33P-ATP) • 50 μl of Met kinase/substrate mixture in assay buffer; (10 ng of enzyme/well, 50 ng of pAGLT/well)
Assay Buffer: • 50 mM HEPES • 3 mM magnesium chloride • 3 μM sodium orthovanadate • 3 mM manganese(II) chloride • 1 mM dithiothreitol (DTT) • pH=7.5 (to be set using sodium hydroxide)

[2] = test system: TPR-Met/NIH3T3 cells; experiment: In-vivo test: subcutaneous TPR-Met/NIH3T3 tumour in Balb/C mice, tumour volume; details: female Balb/C mice, 200 mg/kg daily by gastric tube, 9 days
Method: Experimental procedure: Female Balb/C mice (breeder: Charles River Wiga) were 5 weeks old on arrival. They were acclimatised to our keeping conditions for 7 days. Each mouse was subsequently injected subcutaneously in the pelvic area with 4 million TPR-Met/NIH3T3 cells in 100 μl of PBS (without Ca++ and Mg++).
Measurement of the tumour volume: The length (L) and breadth (B) were measured using a Vernier calliper, and the tumour volume was calculated from the formula L×B×B/2.
Keeping conditions: 4 or 5 animals per cage, feeding with commercial mouse food (Sniff).

T1 sequence (P08581 974-1390 limits assumed): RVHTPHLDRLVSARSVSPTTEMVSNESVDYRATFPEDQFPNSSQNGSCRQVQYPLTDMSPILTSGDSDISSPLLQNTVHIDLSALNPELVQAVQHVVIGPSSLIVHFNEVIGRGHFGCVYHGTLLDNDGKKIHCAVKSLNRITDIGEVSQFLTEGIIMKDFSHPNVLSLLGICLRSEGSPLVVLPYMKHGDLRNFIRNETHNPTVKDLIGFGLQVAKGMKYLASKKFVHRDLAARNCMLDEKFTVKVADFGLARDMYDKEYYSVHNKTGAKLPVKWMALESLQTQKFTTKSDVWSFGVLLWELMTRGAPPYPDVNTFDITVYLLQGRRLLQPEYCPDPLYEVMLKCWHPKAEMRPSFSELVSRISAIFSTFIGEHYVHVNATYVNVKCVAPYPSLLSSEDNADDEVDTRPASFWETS

IC50 [1]	Compound	antitumoural action (tumour volume) [2]
10 to 1000 nM	CCOC(=O)Nc1cccc(Cn2nc(-c3ccc(Cl)cc3)ccc2=O)c1 [A3, ethyl {3-[3-(4-chlorophenyl)-6-oxo-6H-pyridazin-1-ylmethyl]phenyl}carbamate]	–
10 to 1000 nM	CN1CCN(CCOC(=O)Nc2cccc(Cn3nc(-c4ccc(F)c(F)c4)ccc3=O)c2)CC1 [A92, 2-(4-Methylpiperazin-1-yl)ethyl {3-[3-(3,4-difluorophenyl)-6-oxo-6H-pyridazin-1-ylmethyl]phenyl}carbamate]	–
10 to 1000 nM	CN(C)CCCOC(=O)Nc1cccc(Cn2nc(-c3cccc(C#N)c3)ccc2=O)c1 [A61, 3-Dimethylaminopropyl {3-[3-(3-cyanophenyl)-6-oxo-6H-pyridazin-1-ylmethyl]phenyl}carbamate]	–

Second part, the molecule before the results:

Compound	IC50 [1]	antitumoural action (tumour volume) [2]
CN1CCN(CCCOC(=O)Nc2cccc(Cn3nc(-c4cc(F)cc(F)c4)ccc3=O)c2)CC1 [A91, 3-(4-Methylpiperazin-1-yl)propyl {3-[3-(3,5-difluorophenyl)-6-oxo-6H-pyridazin-1-ylmethyl]phenyl}carbamate]	10 to 1000 nM	significant antitumoural action
O=C(Nc1cccc(Cn2nc(-c3cc(F)cc(F)c3)ccc2=O)c1)OCCCN1CCNCC1 [A145, 3-Piperazin-1-ylpropyl {3-[3-(3,5-difluorophenyl)-6-oxo-6H-pyridazin-1-ylmethyl]phenyl}carbamate]	10 to 1000 nM	–
CCOC(=O)Nc1cccc(Cn2nc(-c3ccc(F)cc3)ccc2=O)c1 [A5]	10 to 1000 nM	–
